# Measured values from patent US9127079B2, “Inhibitors of phosphatase and tensin homolog (PTEN) conjugates” (THE UNIVERSITY OF BRITISH COLUMBIA, priority 2009, dated 2015).
# Key:
# [1] = Infarct volume by MRI after cerebral ischemia (MCA/CCA ligation); type: in vivo, rat; conditions: for infarct volume assessed by MRI: seven days after cerebral ischemia; for Mean (infarct volume): given 6 hours after ischemia onset, n=8
# Protocol: (§1) Adult male Sprague-Dawley rats (weight 200 g) were used in this study. All surgical procedures were performed using sterile/aseptic techniques in accordance with Institutional guidelines. Rats were anesthetized with chloral hydrate (0.4 g/kg IP) and subjected to cerebral ischemia. Ligation of the right middle cerebral artery (MCA) and bilateral common carotids arteries (CCAs) was performed by methods described previously (Shyu et al. 2005). The CCAs were clamped with non-traumatic arterial clips. The right MCA was ligated with a 10-0 nylone suture. After 90 min of ischemia, the suture on the MCA and the arterial clips on the CCAs were removed to allow reperfusion. Core body temperature was monitored with a thermistor probe (Hewlett-Packard™ Model 21090A probe, Hewlett-Packard Company™, Andover, Mass.), and maintained at 37° C. with a heating pad during anesthesia. After recovery from anesthesia, rat body temperature was maintained at 37° C. with a heat lamp. […]
# MRI was performed on rats under anesthesia in an imaging system (R4, GE™) at 3.0 T. Brains were scanned in 6 to 8 coronal image slices, each 2 mm thick without any gaps. T2-weighted imaging (T2WI) pulse sequences were obtained with the use of a spin-echo technique (repetition time, 4000 ms; echo time, 105 ms) and were captured sequentially for each animal at day 7 after cerebral ischemia. To measure the infarction area in the right cortex, we subtracted the noninfarcted area in the right cortex from the total cortical area of the left hemisphere (Shyu et al. 2004). The area of infarct was drawn manually from slice to slice, and the volume was then calculated by internal volume analysis software (Voxtool™, General Electric™).
# [2] = Locomotor activity after cerebral ischemia; type: in vivo, rat; conditions: vs other groups
# Protocol: as §1, with “anesthesia.” for “anesthesia. After recovery from anesthesia, rat body temperature was maintained at 37° C. with a heat lamp.”
# (§2) Behavioral assessments were measured on day 28 after stroke. […] The baseline-test scores were recorded in order to normalize those taken after cerebral ischemia. The elevated body swing test (EBST) was used to assess body asymmetry after MCA ligation and evaluated quantitatively as previously described (Shyu et al. 2004). […] The frequency of initial head swing contra-lateral to the ischemic side was counted in twenty continuous tests and was normalized, as follows: % recovery=[1−(lateral swings in twenty tests−10)/10×100%. […]
# [3] = Forelimb grip strength after cerebral ischemia; type: in vivo, rat; conditions: before vs 28 days after ischemia
# Protocol: as §1, with “anesthesia.” for “anesthesia. After recovery from anesthesia, rat body temperature was maintained at 37° C. with a heat lamp.”
# as §2
# [4] = Transgenic G37R SOD1 mouse model of ALS: survival and behavioural outcomes; type: in vivo; conditions: IP 16 mg/kg 3 times a week
# Protocol: Transgenic mice expressing G37R SOD1 (G37R) at almost 8 months of age and having no apparent pathologic symptoms were double blinded with a designated code and divided into 3 groups of 12 mice (6 male and 6 female) maintained on a pure C57BL6 background in the local animal facility under a 12 h light cycle with food and drinking water ad libitum. All mice were genotyped by PCR. The use of animals as described in this study was carried out according to The Guide to the Care and Use of Experimental Animals of the Canadian Council on Animal Care. […].
# Body weight and neurological scores such as HLR scores and Rota Rod functions were regularly monitored and recorded. End points and survival dates were determined when mice were not able to stand up within 20 s when moved on the side. Disabled mice were anesthetized and sacrificed according to the guidelines of The University of British Columbia for the care and use of laboratory animals. All collected data were subjected to statistical analysis using Kaplan-Meier plots and Log-rank tests.
substance,measurement,setting,value
KEIVSRNKRRYQED-YGRKKRRQRRR (KEIVSRNKRRYQEDYGRKKRRQRRR; PTEN K13 interference peptide conjugated to TAT protein transduction domain) [Peptide-K13],decrease in infarct volume as compared to the control,[1]; 1.0 mg/kg intravenous,greater than 50%
same,decrease in infarct volume as compared to the control,[1]; 10 mg/kg intravenous,greater than 50%
same,infarct volume assessed by MRI,[1]; i.v. 8.4 mg/kg given 2 hours after ischemia onset,significantly reduced
same,infarct volume assessed by MRI,[1]; i.v. 8.4 mg/kg given 6 hours after ischemia onset,significantly reduced
same,Mean (infarct volume),[1]; intravenous 0.1 mg/kg,160.900
same,Mean (infarct volume),[1]; intravenous 1.0 mg/kg,72.850
same,Mean (infarct volume),[1]; intravenous 10 mg/kg,63.700
same,"locomotor activities (vertical activity, vertical time, number of vertical movements)",[2]; given 2 hours after ischemia,significantly better
same,"locomotor activities (vertical activity, vertical time, number of vertical movements)",[2]; given 6 hours after ischemia,significantly better
same,forelimb grip strength ratio,[3]; given 2 hours after ischemia,much better strength ratio
same,forelimb grip strength ratio,[3]; given 6 hours after ischemia,much better strength ratio
same,behavioural outcomes,[4]; female ALS mice,improves behavioural outcomes
same,survival,[4]; female ALS mice,prolongs the survival
same,survival,[4]; male ALS mice,no statistically significant improvement
